Data taken from patent US20240424111A1, “Degrader Compounds and Uses Thereof” (CALICO LIFE SCIENCES LLC, priority 2021, published 2024).

Tests used:
[1] = biological target: T1, PTPN2 (Homo sapiens, UniProt P17706); assay: HiBiT PTPN2 degradation in 293T.109 (HiBiT-PTPN2) cells, 24 hours; format: cell-based; conditions: 293T.109 cells
T1 construct: expressed in transfected cells; host or cells: 293T.109 (HiBiT-PTPN2), derived from 293T WT (ATCC)
T1 sequence (P17706 1-415): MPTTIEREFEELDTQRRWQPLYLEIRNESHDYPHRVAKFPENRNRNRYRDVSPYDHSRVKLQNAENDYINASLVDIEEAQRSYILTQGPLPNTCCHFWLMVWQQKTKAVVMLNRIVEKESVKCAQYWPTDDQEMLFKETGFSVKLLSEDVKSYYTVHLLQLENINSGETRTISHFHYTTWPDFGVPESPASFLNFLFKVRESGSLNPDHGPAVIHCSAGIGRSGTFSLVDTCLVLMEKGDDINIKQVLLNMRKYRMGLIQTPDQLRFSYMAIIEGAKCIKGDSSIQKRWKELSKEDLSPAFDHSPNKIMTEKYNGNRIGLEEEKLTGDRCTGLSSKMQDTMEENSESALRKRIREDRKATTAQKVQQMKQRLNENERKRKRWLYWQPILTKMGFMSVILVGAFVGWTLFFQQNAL
Description: Dulbecco's modified Eagle medium (DMEM) without phenol red and fetal bovine serum (FBS) were purchased from Gibco (Grand Island, NY, USA). Nano-Glo® HiBiT Lytic Assay System was purchased from Promega (Medison, WI, USA). 293T. 109 (HiBiT-PTPN2) cell line was generated by ectopically expressing PTPN2 with N-terminal HiBiT fusion tag in 293T WT cell line purchased from ATCC (Manassas, VA, USA). Cell culture flasks and 384-well microplates were acquired from VWR (Radnor, PA, USA).
PTPN2 Degradation Analysis
(§1) PTPN2 degradation was determined based on quantification of luminescent signal using Nano-Glo® HiBiT Lytic Assay kit. Test compounds were added to the 384-well plate from a top concentration of 10 μM with 11 points, half log titration in duplicates. 293T. 109 cells were added into 384-well plates at a cell density of 5000 cells per well. The plates were kept at 37° C. with 5% CO2 for 24 hours. The cells treated in the absence of the test compound were the negative control and the cells without Nano-Glo® HiBiT Lytic reagent were the positive control. After 24-hour incubation, Nano-Glo® HiBiT Lytic Assay reagents were added to the cells. Luminescence was acquired on EnVision™ Multilabel Reader (PerkinElmer, Santa Clara, CA, USA).

[2] = biological target: T2, PTPN2 (Mus musculus, UniProt Q06180); assay: HiBiT PTPN2 degradation in B16F10.4 cells, 24 hours; format: cell-based
T2 construct: HiBiT; host or cells: B16F10.4
T2 sequence (Q06180 1-406): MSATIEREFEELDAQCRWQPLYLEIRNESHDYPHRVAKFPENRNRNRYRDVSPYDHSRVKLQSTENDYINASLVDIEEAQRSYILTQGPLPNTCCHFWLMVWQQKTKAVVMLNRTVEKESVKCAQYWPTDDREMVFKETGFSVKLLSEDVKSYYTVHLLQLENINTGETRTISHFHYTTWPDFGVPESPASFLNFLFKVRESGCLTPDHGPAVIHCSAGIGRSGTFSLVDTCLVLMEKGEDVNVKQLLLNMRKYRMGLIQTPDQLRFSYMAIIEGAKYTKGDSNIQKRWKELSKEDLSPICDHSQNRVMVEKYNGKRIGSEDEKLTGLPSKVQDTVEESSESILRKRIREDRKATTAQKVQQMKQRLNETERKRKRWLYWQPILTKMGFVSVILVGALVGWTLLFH
Procedure: as §1

Row | Structure (SMILES) | DC50 [1] [nM] | DC50 [2] [nM]
1 | Cn1c(=O)n(C2CCC(=O)NC2=O)c2ccc(Oc3ccc(CC(=O)Nc4ccc5c(F)c(N6CC(=O)NS6(=O)=O)c(O)cc5c4)cc3)cc21 (stereo not drawn) [Degrader 76] | 50 to 150 | 50 to 150
2 | C[C@H]1CN(c2ccc3c(c2)n(C)c(=O)n3C2CCC(=O)NC2=O)CC[C@@H]1CC(=O)Nc1ccc2c(F)c(N3CC(=O)NS3(=O)=O)c(O)cc2c1 (stereo partly drawn) [Degrader 133] | 50 to 150 | 50 to 150
3 | Cn1c(=O)n(C2CCC(=O)NC2=O)c2ccc(C3CC4CCC(C3)N4CC(=O)Nc3ccc4c(F)c(N5CC(=O)NS5(=O)=O)c(O)cc4c3)cc21 (stereo not drawn) [Degrader 51] | 50 to 150 | 150 to 500
4 | C[C@@H]1CN(CC(=O)Nc2ccc3c(F)c(N4CC(=O)NS4(=O)=O)c(O)cc3c2)CCN1c1ccc2c(c1)n(C)c(=O)n2C1CCC(=O)NC1=O (stereo partly drawn) [Degrader 24] | 50 to 150 | 50 to 150
5 | Cn1c(=O)n(C2CCC(=O)NC2=O)c2ccc(C3CCN(C/C=C/c4ccc5c(F)c(N6CC(=O)NS6(=O)=O)c(O)cc5c4)CC3)cc21 (stereo not drawn) [Degrader 78] | 150 to 500 | ≥ 500
6 | CCn1c(=O)n(C2CCC(=O)NC2=O)c2ccc(-c3ccc(CC(=O)Nc4ccc5c(F)c(N6CC(=O)NS6(=O)=O)c(O)cc5c4)cc3F)cc21 (stereo not drawn) [Degrader 47] | 50 to 150 | < 50
7 | Cn1c(=O)n(C2CCC(=O)NC2=O)c2ccc(-n3ccc4cc(CC(=O)Nc5ccc6c(F)c(N7CC(=O)NS7(=O)=O)c(O)cc6c5)ccc43)cc21 (stereo not drawn) [Degrader 120] | 150 to 500 | 50 to 150
8 | Cn1c(=O)n(C2CCC(=O)NC2=O)c2ccc(-c3ccc(CC(=O)Nc4ccc5c(F)c(N6CC(=O)NS6(=O)=O)c(O)cc5c4)c(F)c3)cc21 (stereo not drawn) [Degrader 33] | 50 to 150 | 50 to 150
9 | C[C@@H](C(=O)Nc1ccc2c(F)c(N3CC(=O)NS3(=O)=O)c(O)cc2c1)N1CCC(c2ccc3c(c2)n(C)c(=O)n3C2CCC(=O)NC2=O)CC1 (single isomer, unassigned) [Degrader 104] | 50 to 150 | 50 to 150
10 | Cn1c(=O)n(C2CCC(=O)NC2=O)c2ccc(C3CCN(CC4CC(C(=O)Nc5ccc6c(F)c(N7CC(=O)NS7(=O)=O)c(O)cc6c5)C4)CC3)cc21 (stereo not drawn) [Degrader 6] | < 50 | 50 to 150
11 | Cn1c(=O)n(C2CCC(=O)NC2=O)c2ccc([C@@H]3CCN(CC(=O)Nc4ccc5c(F)c(N6CC(=O)NS6(=O)=O)c(O)cc5c4)C[C@H]3O)cc21 (stereo partly drawn) [Degrader 111] | < 50 | 50 to 150
12 | Cn1c(=O)n(C2CCC(=O)NC2=O)c2ccc(-c3ccc(CC(=O)Nc4ccc5c(F)c(N6CC(=O)NS6(=O)=O)c(O)cc5c4)cc3)nc21 (stereo not drawn) [Degrader 60] | 150 to 500 | 50 to 150
13 | Cn1c(=O)n(C2CCC(=O)NC2=O)c2ccc3c(c21)CCCN3CCCC(=O)Nc1ccc2c(F)c(N3CC(=O)NS3(=O)=O)c(O)cc2c1 (stereo not drawn) [Degrader 145] | ≥ 500 | ≥ 500
14 | Cn1c(=O)n(C2CCC(=O)NC2=O)c2cc(F)c(N3CCC(CC(=O)Nc4ccc5c(F)c(N6CC(=O)NS6(=O)=O)c(O)cc5c4)CC3)cc21 (stereo not drawn) [Degrader 43] | < 50 | 150 to 500
15 | Cn1c(=O)n(C2CCC(=O)NC2=O)c2ccc(-c3ccc([C@@H](CO)C(=O)Nc4ccc5c(F)c(N6CC(=O)NS6(=O)=O)c(O)cc5c4)cc3)cc21 (stereo partly drawn) [Degrader 138] | < 50 | < 50
16 | Cn1c(=O)n(C2CCC(=O)NC2=O)c2ccc(C3CN(CC(=O)Nc4ccc5c(F)c(N6CC(=O)NS6(=O)=O)c(O)cc5c4)CCC3F)cc21 (stereo not drawn) [Degrader 140] | 50 to 150 | 150 to 500
17 | COC1(CC(=O)Nc2ccc3c(F)c(N4CC(=O)NS4(=O)=O)c(O)cc3c2)CCN(c2ccc3c(c2)n(C)c(=O)n3C2CCC(=O)NC2=O)CC1 (stereo not drawn) [Degrader 99] | < 50 | 50 to 150
18 | Cn1c(=O)n(C2CCC(=O)NC2=O)c2ccc(Cc3ccc(CC(=O)Nc4ccc5c(F)c(N6CC(=O)NS6(=O)=O)c(O)cc5c4)cc3)cc21 (stereo not drawn) [Degrader 136] | < 50 | 50 to 150
